Each structure is given as a SMILES string.

`CC(C)(C)c1cc(NC(=O)Nc2ccc(Oc3cc(N)ncn3)cc2F)n(-c2ccc(F)cc2)n1` [Example 14, 1-[4-(6-Amino-pyrimidin-4-yloxy)-2-fluoro-phenyl]-3-[5-tert-butyl-2-(4-fluoro-phenyl]-2H-pyrazol-3-yl]-urea]: the melting point (usually the temperature, or range, at which the solid turns liquid) was in the range of 141 to 142 °C.

For `CNc1cc(Oc2ccc(NC(=O)Nc3cc(C(C)(C)C)nn3-c3cccc(C(=O)N4CCN(C)CC4)c3)cc2)ncn1` [Example 15, 1-{5-tert-Butyl-2-[3-(4-methyl-piperazine-1-carbonyl)-phenyl]-2H-pyrazol-3-yl}-3-[4-(6-methylamino-pyrimidin-4-yloxy)-phenyl]-urea], the melting point lay in the range of 146 to 147 °C.

The record behind these values is patent US20090131437A1, “DISUBSTITUTED UREAS AS KINASE INHIBITORS” (CORIUM INTERNATIONAL, INC., priority 2005, published 2009).
